We go through three compounds from patent US5688938A, “Calcium receptor-active molecules” (priority 1995, dated 1997).

SMILES strings stand for the structures. Residue numbers refer to the chain shown, from its start.

The target of assay [1] is T1, human parathyroid cell calcium receptor (Homo sapiens, UniProt P41180).
T1 construct: cRNA injected in Xenopus oocytes
T1 sequence (P41180 20-1078 R990G/E1011Q): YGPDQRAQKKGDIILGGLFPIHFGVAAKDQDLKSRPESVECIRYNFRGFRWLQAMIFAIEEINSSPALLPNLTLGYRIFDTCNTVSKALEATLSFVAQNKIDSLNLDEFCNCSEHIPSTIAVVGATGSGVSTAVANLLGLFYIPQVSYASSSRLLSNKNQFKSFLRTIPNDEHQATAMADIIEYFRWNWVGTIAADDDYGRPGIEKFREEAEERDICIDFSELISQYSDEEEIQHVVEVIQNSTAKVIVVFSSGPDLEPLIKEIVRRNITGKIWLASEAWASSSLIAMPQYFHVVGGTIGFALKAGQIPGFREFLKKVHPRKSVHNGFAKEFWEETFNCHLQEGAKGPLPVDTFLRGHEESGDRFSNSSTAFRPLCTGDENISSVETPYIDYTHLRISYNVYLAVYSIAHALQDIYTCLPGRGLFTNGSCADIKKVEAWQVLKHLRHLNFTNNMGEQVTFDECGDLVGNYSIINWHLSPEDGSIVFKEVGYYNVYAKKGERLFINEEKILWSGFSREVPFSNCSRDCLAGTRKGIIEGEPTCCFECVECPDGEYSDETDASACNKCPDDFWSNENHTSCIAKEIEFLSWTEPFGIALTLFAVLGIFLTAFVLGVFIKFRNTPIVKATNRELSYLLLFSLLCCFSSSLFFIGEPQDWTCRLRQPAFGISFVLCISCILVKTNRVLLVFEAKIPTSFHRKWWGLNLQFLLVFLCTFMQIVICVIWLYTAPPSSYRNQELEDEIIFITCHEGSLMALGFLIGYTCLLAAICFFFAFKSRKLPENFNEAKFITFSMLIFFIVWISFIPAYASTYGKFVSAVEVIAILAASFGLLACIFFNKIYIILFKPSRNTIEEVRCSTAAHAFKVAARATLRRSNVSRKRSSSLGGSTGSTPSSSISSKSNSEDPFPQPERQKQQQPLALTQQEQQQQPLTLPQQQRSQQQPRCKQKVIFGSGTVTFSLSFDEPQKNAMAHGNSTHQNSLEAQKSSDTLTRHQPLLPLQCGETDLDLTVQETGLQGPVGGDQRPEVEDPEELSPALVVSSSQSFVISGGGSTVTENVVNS
The assay can be described thus: Cl^- current in Xenopus oocytes expressing cloned human parathyroid calcium receptor. It counts as cell-based. The following applies: for Cl^- current: 0.3 mM extracellular Ca^2+, NPS 019 3 to 30 μM. Here is the method: Representative cDNA inserts for both size classes were subcloned into the plasmid vector pBluescript SK. Linearization followed by in vitro transcription using T7 RNA polymerase produced cRNA transcripts. The cRNA transcripts were injected into Xenopus oocytes (150 ng/μl RNA; 50 nl/oocyte) for functional analysis. Following incubation periods of 2-4 days, the oocytes were assayed for the presence of functional calcium receptors. Both clone types gave rise to functional calcium receptors as assessed by the stimulation of calcium-activated chloride currents upon addition of appropriate calcium receptor agonists. […] Thus, both clones encode a functional, human parathyroid cell calcium receptor.
Xenopus oocytes were injected with pHuPCaR 5.2, the 5.2 Kb cDNA encoding a parathyroid cell calcium receptor derived from a human parathyroid cell adenoma. (See Example 27.) After two to three days, Cl^- currents were measured in the oocytes using a two-electrode voltage clamp.

Assay [2] can be described thus: serum/plasma Ca^2+, PTH and calcitonin in rats, oral. It counts as in vivo. The conditions noted are these: rat, oral. An excerpt: Rats (male, Sprague-Dawley, 250-300 g) were fed standard rat chow and fasted overnight prior to the experiment. NPS R-467 was suspended in corn oil and administered as a single oral dose through a gavage needle. Three hours later a sample of blood was taken from the tail vein and assessed for ionized Ca^2+ levels.

Assay [3] is described as follows: serum ionized Ca^2+ in parathyroidectomized rats. It counts as in vivo, rat. The following applies: oral. From the text:
To determine the primary target tissue upon which NPS R-467 acts to cause a hypocalcemic response, the parathyroid glands in rats were surgically removed. Animals receiving a total parathyroidectomy become hypocalcemic and are largely dependent upon dietary calcium to maintain serum Ca^2+ homeostasis.

The target of assay [4] is T2, parathyroid cell calcium receptor (Homo sapiens, UniProt P41180).
T2 construct: Dissociated parathyroid cells were prepared from a parathyroid adenoma obtained by surgery from a patient with primary hyperparathyroidism; endogenous in cells; host or cells: primary dissociated human parathyroid cells (adenoma or hyperplastic tissue from surgery)
T2 sequence (P41180 20-1078): T1 sequence (P41180 20-1078 R990G/E1011Q) with G971R, Q992E
The assay can be described thus: [Ca^2+]i (fura-2) in human parathyroid cells. It counts as cell-based.
Procedure: This section describes procedures used to obtain and treat parathyroid cells from calves and humans. […] Human parathyroid glands, were obtained from patients undergoing surgical removal of parathyroid tissue for primary or uremic hyperparathyroidism (uremic HPT), and were treated similarly to bovine tissue.
Dissociated parathyroid cells were prepared from a parathyroid adenoma obtained by surgery from a patient with primary hyperparathyroidism.

Assay [5] concerns human parathyroid cells. The assay can be described thus: PTH secretion from human parathyroid cells. The assay is classed as cell-based. Here is the method:
PTH secretion was measured by first suspending cells in PCB containing 0.5 mM CaCl2 and 0.1% BSA.
For human cells, a commercially available radioimmunoassay kit (INS-PTH; Nichols Institute, Los Angeles, Calif.) which recognizes intact and N-terminal human PTH was used because GW-1 antibody recognizes human PTH poorly.

On to `NCCCNCCCCNCCCNCCCNCCCNC(=O)Cc1c[nH]c2ccccc12` [NPS 019, reference compound], for which, in assay [1], the “Cl^- current response in absence of extracellular Ca^2+” value is recorded as “persisted” and the “Cl^- current” value is “evoked increases in the Cl^- current”.

With `COc1cccc([C@@H](C)NCCCc2ccccc2Cl)c1` [NPS R-568, (R)-(+)-N-[3-(2-chlorophenyl)propyl]-α-methyl-3-methoxybenzylamine], in assay [1], the “Cl^- current response in absence of extracellular Ca^2+” value was “abolished” and the “Cl^- current” value is given as “evoked increases in the Cl^- current”. The “activation of oocyte-expressed human receptor” value in assay [1] (pHuPCaR 5.2 and 4.0) is recorded as “activated the oocyte-expressed receptor at about the same concentrations”. In addition, the “hypocalcemic response after prior complete nephrectomy” value in assay [2] is on record as “only marginally affected”. Further, in assay [3], the “hypocalcemic response in parathyroidectomized rats” value is “fails to elicit a hypocalcemic response”.

Consider `NC[C@@H]1O[C@H](O[C@H]2[C@@H](O)[C@H](O[C@@H]3[C@@H](O)[C@H](N)C[C@H](N)[C@H]3O[C@H]3O[C@H](CN)[C@@H](O)[C@H](O)[C@H]3N)O[C@@H]2CO)[C@H](N)[C@@H](O)[C@@H]1O` [Neomycin], for which the “increase in [Ca^2+]i” value in assay [4] (20 μM) was “large increase in [Ca^2+ ]i”. For the same compound, the “increases in [Ca^2+]i” value in assay [4] (human adenoma cells) is “not only a transient, but additionally a steady-state increase in [Ca^2+ ]i”. Also, the concentration for a half-maximal effect (EC50) in assay [4] (human parathyroid cells) was 20 µM. The “inhibition of PTH secretion” value in assay [5] is recorded as “inhibited PTH secretion from human parathyroid cells”.
